Reference: patent US12612412B2, “Antiviral heterocyclic compounds” (Enanta Pharmaceuticals, Inc., priority 2021, dated 2026)

system: genotype A, "Long" strain RSV; test: RSV-A assay (CPE protection in Hep-2 cells, ATPlite readout); type: cell-based, Human respiratory syncytial virus (HRSV); conditions: human respiratory syncytial virus, RSV-A Long strain, MOI 0.1, CPE protection, read-out: Human RSV-A (“Long”) EC50
Procedure, shortened: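 Hep-2 cells (8,000/well) were treated with 2-fold serial compound dilutions in duplicate and infected with RSV at MOI 0.1. After 5 days, protection from cytopathic effect was measured as cell viability by ATPlite luminescence, and EC50 values were derived.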

EC50, < 200 nM:
COc1cc(C(=O)NC[C@](O)(c2cc3c(c(-c4c(F)ccc(F)c4Cl)n2)OC[C@]3(C)C(N)=O)C(F)(F)F)cc2cn(C3CC3)nc12 [Example 1244]
COc1cc(C(=O)NCC(O)(c2cc3c(c(-c4cc(F)c(Cl)c(F)c4)n2)OC[C@]3(C)C(N)=O)C(F)(F)F)cc2cn(C3CC3)nc12 (stereo partly drawn) [Example 1245]
COc1cc(C(=O)NC[C@@](O)(c2cc3c(c(-c4cc(F)cc(F)c4F)n2)OC[C@]3(C)C(N)=O)C(F)(F)F)cc2cn(C3CC3)nc12 [Example 1246]
COc1cc(C(=O)NC[C@](O)(c2cc3c(c(-c4cc(F)cc(F)c4F)n2)OC[C@]3(C)C(N)=O)C(F)(F)F)cc2cn(C3CC3)nc12 [Example 1247]
COc1cc(C(=O)NCC(O)(c2cc3c(c(-c4cc(F)cc(Cl)c4)n2)OC[C@]3(C)C(N)=O)C(F)(F)F)cc2cn(C3CC3)nc12 (stereo partly drawn) [Example 1252]
COc1cc(C(=O)NC[C@](O)(c2cc3c(c(-c4cccc(Cl)c4Cl)n2)OC[C@]3(C)C(N)=O)C(F)(F)F)cc2cn(C3CC3)nc12 [Example 1253]
COc1cc(C(=O)NC[C@](O)(c2cc3c(c(-c4ccc(Cl)cc4Cl)n2)OC[C@]3(C)C(N)=O)C(F)(F)F)cc2cn(C3CC3)nc12 [Example 1254]
COc1cc(C(=O)NC[C@](O)(c2cc3c(c(-c4cc(Cl)ccc4Cl)n2)OC[C@]3(C)C(N)=O)C(F)(F)F)cc2cn(C3CC3)nc12 [Example 1255]
COc1cc(C(=O)NCC(O)(c2cc3c(c(-c4cc(Cl)cc(Cl)c4)n2)OC[C@]3(C)C(N)=O)C(F)(F)F)cc2cn(C3CC3)nc12 (stereo partly drawn) [Example 1256]
COc1cc(C(=O)NC[C@](O)(c2cc3c(c(-c4ccc(Cl)c(Cl)c4F)n2)OC[C@]3(C)C(N)=O)C(F)(F)F)cc2cn(C3CC3)nc12 [Example 1257]
COc1cc(C(=O)NC[C@](O)(c2cc3c(c(-c4cc(Cl)cc(Cl)c4F)n2)OC[C@]3(C)C(N)=O)C(F)(F)F)cc2cn(C3CC3)nc12 [Example 1258]
COc1cc(C(=O)NC[C@](O)(c2cc3c(c(-c4cc(Cl)cc(F)c4Cl)n2)OC[C@]3(C)C(N)=O)C(F)(F)F)cc2cn(C3CC3)nc12 [Example 1259]
COc1cc(C(=O)NC[C@](O)(c2cc3c(c(-c4ccc(Cl)c(F)c4Cl)n2)OC[C@]3(C)C(N)=O)C(F)(F)F)cc2cn(C3CC3)nc12 [Example 1260]
COc1cc(C(=O)NC[C@](O)(c2cc3c(c(-c4cc(F)cc(F)c4Cl)n2)OC[C@]3(C)C(N)=O)C(F)(F)F)cc2cn(C3CC3)nc12 [Example 1261]
COc1cc(C(=O)NC[C@](O)(c2cc3c(c(-c4c(Cl)ccc(Cl)c4F)n2)OC[C@]3(C)C(N)=O)C(F)(F)F)cc2cn(C3CC3)nc12 [Example 1262]
COc1cc(C(=O)NC[C@](O)(c2cc3c(c(-c4c(F)ccc(Cl)c4Cl)n2)OC[C@]3(C)C(N)=O)C(F)(F)F)cc2cn(C3CC3)nc12 [Example 1263]
COc1cc(C(=O)NC[C@](O)(c2cc3c(c(-c4cc(F)c(Cl)cc4Cl)n2)OC[C@]3(C)C(N)=O)C(F)(F)F)cc2cn(C3CC3)nc12 [Example 1265]
COc1cc(C(=O)NCC(O)(c2cc3c(c(-c4cc(F)c(Cl)c(Cl)c4)n2)OC[C@]3(C)C(N)=O)C(F)(F)F)cc2cn(C3CC3)nc12 (stereo partly drawn) [Example 1266]
COc1cc(C(=O)NC[C@](O)(c2cc3c(c(-c4cc(Cl)c(Cl)cc4F)n2)OC[C@]3(C)C(N)=O)C(F)(F)F)cc2cn(C3CC3)nc12 [Example 1267]
COc1cc(C(=O)NC[C@](O)(c2cc3c(c(C4CCC(F)(F)CC4)n2)OC[C@]3(C)C(N)=O)C(F)(F)F)cc2cn(C3CC3)nc12 [Example 1268]
COc1cc(C(=O)NC[C@](O)(c2cc3c(c(N4CCC(F)(F)CC4)n2)OC[C@]3(C)C(N)=O)C(F)(F)F)cc2cn(C3CC3)nc12 [Example 1270]
COc1cc(C(=O)NC[C@](O)(c2cc3c(c(N4CCCC(F)(F)C4)n2)OC[C@]3(C)C(N)=O)C(F)(F)F)cc2cn(C3CC3)nc12 [Example 1271]
[2H]C([2H])([2H])c1nc2c(OC)cc(C(=O)NC[C@](O)(c3cc4c(c(-c5cc(Br)c(F)cc5F)n3)OC[C@]4(C)C(N)=O)C3CC3)cc2cc1Cl [Example 1272]
COc1cc(C(=O)NC[C@](O)(c2cc3c(c(-c4cc(F)c(F)c(F)c4)n2)OC[C@]3(C)C(N)=O)C2CC2)cc2cn(C3CC3)nc12 [Example 1273]
COc1cc(C(=O)NC[C@](O)(c2cc3c(c(-c4c(F)ccc(F)c4F)n2)OC[C@]3(C)C(N)=O)C2CC2)cc2cn(C3CC3)nc12 [Example 1274]
COc1cc(C(=O)NC[C@](O)(c2cc3c(c(-c4cc(Cl)c(F)cc4Cl)n2)OC[C@]3(C)C(N)=O)C2CC2)cc2cn(C3CC3)nc12 [Example 1275]
COc1cc(C(=O)NC[C@](O)(c2cc3c(c(-c4cc(F)cc(F)c4)n2)OC[C@]3(C)C(N)=O)C2CC2)cc2cn(C3CC3)nc12 [Example 1276]
COc1cc(C(=O)NC[C@](O)(c2cc3c(c(-c4ccc(F)cc4F)n2)OC[C@]3(C)C(N)=O)C2CC2)cc2cn(C3CC3)nc12 [Example 1277]
COc1cc(C(=O)NC[C@](O)(c2cc3c(c(-c4cc(F)c(F)c(F)c4F)n2)OC[C@]3(C)C(N)=O)C2CC2)cc2cn(C3CC3)nc12 [Example 1278]
COc1cc(C(=O)NC[C@](O)(c2cc3c(c(-c4ccc(Cl)cc4Cl)n2)OC[C@]3(C)C(N)=O)C2CC2)cc2cn(C3CC3)nc12 [Example 1279]
COc1cc(C(=O)NC[C@](O)(c2cc3c(c(-c4cc(Cl)ccc4Cl)n2)OC[C@]3(C)C(N)=O)C2CC2)cc2cn(C3CC3)nc12 [Example 1280]
COc1cc(C(=O)NC[C@](O)(c2cc3c(c(-c4cc(Cl)cc(Cl)c4)n2)OC[C@]3(C)C(N)=O)C2CC2)cc2cn(C3CC3)nc12 [Example 1281]
COc1cc(C(=O)NC[C@](O)(c2cc3c(c(-c4cc(F)ccc4F)n2)OC[C@]3(C)C(N)=O)C2CC2)cc2cn(C3CC3)nc12 [Example 1282]
COc1cc(C(=O)NC[C@](O)(c2cc3c(c(-c4cccc(Cl)c4F)n2)OC[C@]3(C)C(N)=O)C2CC2)cc2cn(C3CC3)nc12 [Example 1283]
COc1cc(C(=O)NC[C@](O)(c2cc3c(c(-c4c(Cl)ccc(F)c4F)n2)OC[C@]3(C)C(N)=O)C(F)(F)F)cc2cn(C3CC3)nc12 [Example 1284]
COc1cc(C(=O)NC[C@](O)(c2cc3c(c(-c4cc(F)cc(Cl)c4Cl)n2)OC[C@]3(C)C(N)=O)C2CC2)cc2cn(C3CC3)nc12 [Example 1285]
COc1cc(C(=O)NC[C@](O)(c2cc3c(c(-c4cccc(Cl)c4Cl)n2)OC[C@]3(C)C(N)=O)C2CC2)cc2cn(C3CC3)nc12 [Example 1286]
[2H]C([2H])([2H])c1nc2c(OC)cc(C(=O)NC[C@](O)(c3cc4c(c(-c5cc(Cl)c(F)cc5F)n3)OC[C@]4(C)C(N)=O)C3CC3)cc2cc1Cl [Example 1287]
[2H]C([2H])([2H])c1nc2c(OC)cc(C(=O)NC[C@](O)(c3cc4c(c(-c5cc(F)c(F)cc5F)n3)OC[C@]4(C)C(N)=O)C3CC3)cc2cc1Cl [Example 1288]
